According to paper PMC6144582, “The Binding of BF-227-Like Benzoxazoles to Human α-Synuclein and Amyloid β Peptide Fibrils” (Molecular Imaging, 2018):
Read-outs that look alike come from different tables or passages of the source.

How the values were obtained:
[1] = target: T1, human α-Syn fibrils (Homo sapiens, UniProt P37840); assay: Competition binding against 5 nM [3H]BF-227 on α-Syn fibrils; conditions: for Ki: 5 nM [3H]BF-227, Cheng-Prusoff, geometric mean (low; high errors of the geometric mean); for Ki(Aβ)/Ki(α-Syn): selectivity for α-Syn binding, ratio of Ki on Aβ fibrils to Ki on α-Syn fibrils
T1 construct: Human full-length α-Syn (NM_000345) was cloned; made in house; host or cells: Escherichia coli BL21 (D3)
Method: Human full-length α-Syn (NM_000345) was cloned into the ampicillin-resistant Escherichia coli expression vector PET7-7 and transformed into BL21 (D3) strains for expression. The recombinant α-Syn was expressed and purified to ≥95% purity as described previously.[6] The monomeric α-Syn was formulated in 10 mM Tris–HCl, pH 7.6, 50 mM NaCl at 5 mg/mL. For fibril formation, 500 µL of purified α-Syn monomer was subjected to continuous shaking at 1000 rpm in an Eppendorf Thermomixer at 37°C for 7 days. The monomer was removed from fibrils by high-speed centrifugation with a Beckman-Coulter tabletop Optima MAX-XP (Beckman-Coulter, Indianapolis, Indiana) ultra-centrifuge at 600 000g for 40 minutes, followed by 3 PBS/centrifugation wash steps. After each centrifugation step, the supernatant was removed and the concentration of α-Syn in the supernatant was calculated from absorbance at 280 nm. The pellet was resuspended in PBS, and the concentration of fibrils was estimated by subtracting the total amount of α-Syn in the supernatant from all the wash steps and confirmed by BCA assay before use.
(§1) Competition studies were carried out using 5 nM [^3H]BF-227. Experiments were performed in 50 mM Tris–HCl pH 7.5, 150 mM NaCl, and 0.1% bovine serum albumin in a reaction volume of 200 µL. Incubations were initiated with the addition of human α-Syn ([…]) or Aβ1-42 (0.1 μM/well) fibrils at room temperature and terminated 2 hours later by rapid vacuum filtration over Whatman GF/C 96-well Unifilters (Brandel [Gaithersburg, Maryland]) presoaked in cold wash buffer (50 mM Tris–HCl, pH7.4), followed by four 200 µL washes with cold wash buffer. Filters containing bound ligand were mixed with 50 µL Microscint-PS (Perkin-Elmer [Waltham, Massachusetts]) and counted with a MicroBeta2 Scintillation Counter (Perkin Elmer). All data points were performed in triplicate. Values for the saturation binding dissociation constant (KD) and the maximal number of binding sites (Bmax) were determined by fitting the data to the equation Y = Bmax × X/(X + KD) using nonlinear regression analysis. IC50 values were generated from the concentration–response curves using nonlinear regression analysis and converted to Ki values with the Cheng-Prusoff equation.[7] Data analysis was performed with GraphPad Prism version 7.02.
(§2) Results are expressed as inhibition constants (Ki, nM) corrected for ligand occupancy.[7] Each value is a geometric mean from the indicated numbers of experiments (n), with the numbers in parentheses indicating the low and high errors of the geometric mean. Also shown are the Log P, tPSA, and CLogP values for these compounds. These can be compared with means for the 5 Aβ imaging agents which can serve as an empirical training set to judge the likely in vivo behavior of new compounds.

[2] = target: T2, Aβ1-42 fibrils (Homo sapiens, UniProt P05067); assay: Competition binding against 5 nM [3H]BF-227 on Aβ1-42 fibrils; conditions: 5 nM [3H]BF-227, Cheng-Prusoff; geometric mean (low; high errors of the geometric mean); read-out: Aβ Ki
T2 construct: Aβ1-42 peptide 5 mg, Cat #20276-5 (Anaspec, Fremont, California); purchased Anaspec 20276-5
T2 sequence (P05067 672-713 limits assumed): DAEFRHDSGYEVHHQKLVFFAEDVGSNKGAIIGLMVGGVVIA
Method: The clear peptide solution was transferred to a 15 mL conical tube. […] Subsequently, 4 mL of Milli-Q-H2O was added to the conical tube followed by the addition of 125 µL of 1 M Tris–HCl, pH 7.5 with gentle mixing of the solution. The final volume was 5 mL, with the starting peptide concentration at 1 mg/mL. The peptide solution was divided into 5 × 1 mL aliquots with 1.5 mL Eppendorf tubes and incubated for 72 hours at 37°C with shaking at 1000 rpm in an Eppendorf Thermomixer. […] Fibril stock solutions were stored at −80°C.
as §1, with “Experiments” for “Competition studies were carried out using 5 nM [^3H]BF-227. Experiments”, “equation.[7]” for “equation.[7] Data analysis was performed with GraphPad Prism version 7.02.”
as §2, with “Also shown are the Log P, tPSA, and CLogP values for these compounds.” left out

[3] = test system: α-Syn-positive, Aβ-negative dementia with Lewy body human brain homgenates; design: method as in PMID 28826526; conditions: cited from earlier work
[4] = target: synthetic Aβ fibrils; design: method as in PMID 17401091; conditions: reported value; cited from earlier work
[5] = target: synthetic Aβ fibrils; design: method as in PMID 19576880; conditions: reported value; cited from earlier work
[6] = target: synthetic α-Syn fibrils; design: method as in PMID 19576880; conditions: reported value; cited from earlier work
[7] = test system: Lewy body; design: method as in PMID 19576880; conditions: high concentration (100 μM); cited from earlier work

Row | Structure (SMILES) | Ki [1] | Ki(Aβ)/Ki(α-Syn) [1] | Ki [2] | other results
1 | Fc1ccc2nc(/C=C/c3ccccc3)oc2c1 [Compound 13] | 0.328 µM | 3.8 | 1.25 µM | 
2 | CN(C)c1ncc(/C=C/c2nc3ccc(OCCOCCF)cc3o2)s1 [Compound 7] | 0.083 µM | 0.13 | 0.011 µM | 
3 | CN(C)c1ncc(/C=C/c2nc3ccc(I)cc3o2)s1 [Compound 11] |  | 0.30 | 0.223 µM | 
4 | CN(C)c1ncc(C=Cc2nc3ccc(OCCF)cc3o2)s1 [[^18F]BF-227] |  |  |  | Binding to α-Syn-positive, Aβ-negative dementia with Lewy body human brain homogenates [3]: failed to bind
5 | Fc1ccc2oc(/C=C/c3ccccc3)nc2c1 [Compound 14] | 0.238 µM | 2.2 | 0.528 µM | 
6 | CN(C)c1ncc(C=Cc2nc3ccc(OCCF)cc3o2)s1 [Compound 1, 2-(2-[2-dimethylaminothiazol-5-yl]ethenyl)-6-(2-[fluoro]ethoxy)benzoxazole] | 0.053 µM | 0.23 | 0.012 µM | Kd [4]: 0.0041 µM; Kd [5]: 0.00131 µM; Kd [6]: 0.0093 µM; Lewy body fluorescence in histochemical analysis [7]: led to Lewy body fluorescence
7 | CNc1ccc(/C=C/c2ccc(OCCOCCOCCF)nc2)cc1 [Florbetapir (AV-45), reference compound] | 0.024 µM | 0.46 | 0.012 µM | 
8 | CN(C)c1ncc(/C=C/c2nc3ccc(OCCCCF)cc3o2)s1 [Compound 3] | 0.378 µM | 0.08 | 0.031 µM | 
9 | CN(C)c1ncc(/C=C/c2nc3cc(I)ccc3o2)s1 [Compound 12] | 0.276 µM | 0.35 | 0.096 µM | 
10 | CNc1ccc(-c2cc3cc(O)ccc3o2)c(F)n1 [Flutafuranol (NAV 4694), reference compound] | 0.032 µM | 1.34 | 0.042 µM | 
11 | CN(C)c1ncc(/C=C/c2nc3ccc(OCCOCCOCCOCCF)cc3o2)s1 [Compound 9] | 0.1 µM | 0.26 | 0.026 µM | 
12 | C#CCN(C)CCCOc1ccc(Cl)cc1Cl [Clorgyline, reference compound] | > 9 µM |  | > 5 µM | 
13 | COc1cc(/C=C/c2ccc(N)cc2)ccc1/C=C/c1ccc(N)cc1 [BMB, 1,4-bis(paminostyryl)-2-methoxy benzene, reference compound] | 0.184 µM |  | 0.076 µM | 
14 | Fc1ccc2nc(/C=C/c3cncs3)oc2c1 [Compound 15] | 0.286 µM | 5.1 | 1.45 µM | 
15 | NCCNC(=O)c1ccc(Cl)cc1 [RO-16-6491, reference compound] | > 9 µM |  | > 7 µM | 
16 | CN(C)c1ncc(/C=C/c2nc3ccc(OCCOCCOCCOCCOCCF)cc3o2)s1 [Compound 10] | 0.075 µM | 0.24 | 0.018 µM | 
17 | CN(C)c1ncc(/C=C/c2nc3ccc(OCCOCCOCCF)cc3o2)s1 [Compound 8] | 0.052 µM | 0.25 | 0.013 µM | 
18 | CN(C)c1ncc(/C=C/c2nc3ccc(OCCCCCCCF)cc3o2)s1 [Compound 6] | 0.212 µM | 0.13 | 0.027 µM | 
19 | CN(C)c1ncc(/C=C/c2nc3ccc(OCCCCCF)cc3o2)s1 [Compound 4] | 0.297 µM | 0.09 | 0.028 µM | 
20 | CNc1ccc(-c2nc3ccc(O)cc3s2)cc1 [PiB, reference compound] | 0.055 µM |  |  | 
21 | CN(C)c1ncc(/C=C/c2nc3ccc(OCCCCCCF)cc3o2)s1 [Compound 5] | 0.462 µM | 0.05 | 0.023 µM | 
22 | CNc1ccc(-c2nc3ccc(O)cc3s2)cc1F [Flutemetamol, reference compound] | 0.048 µM | 1.35 | 0.065 µM | 
23 | CNc1ccc(-c2nc3ccccc3s2)cc1 [BTA-1, reference compound] | 0.064 µM |  |  | 
24 | Cc1ccc2c(sc(-c3ccc4c(c3)sc(-c3ccc(N(C)C)cc3)[n+]4C)[n+]2C)c1S(=O)(=O)O [reference compound] | > 9 µM | ≤0.2 | 2.15 µM | 
25 | CN(C)c1ncc(/C=C/c2nc3ccc(OCCCF)cc3o2)s1 [Compound 2] | 0.157 µM | 0.06 | 0.00901 µM | 
